The source of these data is patent US11925623B2 (priority 2020, dated 2024).

Structures are written as SMILES.

In this assay the test system is APP/PS1 transgenic mice. Kind of assay: T-maze cognitive assessment in APP/PS1 transgenic mice. Type of assay: in vivo. Particulars: 75 mg/kg i.p. for 12 weeks; 7 and 12 month cohorts. The text has this:
Spontaneous alternation in a T-maze was used to assess working memory abilities, based on the innate tendency of mice to alternate their choice of a goal arm based on their recall of the initial choice. The T-maze used was made of black plexiglass as per dimensions stated in Nat Protocol, 2006 [PMID: 17406205, www.nature.com/articles/nprot.2006.2]. Mice were placed in the start arm with the central divider in place so that when entering either of the goal arms the mice were not able to see the other one. The mice were allowed to move freely in the whole hall, and then, after being confined to the start arm for 30 seconds, the animal was allowed to move freely for a total of 15 arm entrees. […] The alternation percentage was calculated by dividing the number of times the animal entered alternating arms by 14 (free-choice trials). An arm entry is defined as the animal's tail tip entering the arm and repetitive arm entries as an animal re-entering the same arm three times in a row (e.g., 5 sequential entries into the same arm is 3 repetitive entries). Ratio of right and left arm entries was calculated to determine spatial preference of mice in different treatment groups. The data were analyzed using repeated measures analysis of variance (ANOVA) using Dunnett test. […]

On to `O=C(O)C1(O)CSC(O)(C(=O)O)CS1` (stereo not shown) [sulfanegen], for which the “cognitive function (T-maze spontaneous alternation)” value is given as “improved cognitive function”.
